Columns and labels:
aldose reductase = target: T1, aldose reductase (Bos taurus, UniProt P16116); assay: inhibition of aldose reductase enzyme activity (procedure of S. Hayman et al., modified by K. Sestanj et al.); format: biochemical, calf; details: calf lens enzyme, read-out: Percent inhibition of aldose reductase enzyme activity; for inhibition at 100 µM: 10^-4 M; for inhibition at 10 µM: 10^-5 M; for inhibition at 1 µM: 10^-6 M; for inhibition at 0.1 µM: 10^-7 M
T1 construct: partially purified aldose reductose enzyme obtained from calf lens; from tissue; host or cells: calf lens
Experimental: (§1) The activity of the compounds of the present invention, as agents for the control of chronic diabetic complications, is determined by their ability to successfully pass one or more of the following standard biological and/or pharmacological tests, viz., (1) measuring their ability to inhibit the enzyme activity of isolated aldose reductase; (2) measuring their ability to reduce or inhibit sorbitol accumulation in the sciatic nerve of acutely sterptozotocinized (i.e., diabetic) rats; (3) measuring their ability to reverse already-elevated sorbitol levels in the sciatic nerve and lens of chronic streptozotocin-induced diabetic rats; (4) measuring their ability to prevent or inhibit galactitol formation in the lens of acutely galactosemic rats, and (5) measuring their ability to delay cataract formation and reduce the severity of lens opacities in chronic galactosemic rats.
Hayman et al., as described in the Journal of Biological Chemistry, Vol. 240, p. […] In every case, the substrate employed ws partially purified aldose reductose enzyme obtained from calf lens.

[1] = system: sorbitol accumulation in the sciatic nerve of streptozotocinized (i.e., diabetic) rats; assay: inhibition of sorbitol accumulation in the sciatic nerve of acutely streptozotocinized (diabetic) rats; format: in vivo, rat; details: measured at 27 h, vs untreated
Experimental: as §1
The following spiro-hydantoin compounds of Preparation C and Examples I-V, VII-IX, XI-XVII, XIX-XXV, XXVII and XXX-XXXIII, respectively, were tested for their ability to reduce or inhibit sorbitol accumulation in the sciatic nerve of streptozotocinized (i.e., diabetic) rats by the procedure essentially described in U.S. Pat. No. 3,821,383. In the present study, the amount of sorbitol accumulation in the sciatic nerves was measured 27 hours after induction of diabetes. The compounds were administered orally at the dose levels indicated at 4, 8 nd 24 hours following the administration of streptozotocin. The results obtained in this manner are presented below in terms of percent inhibition (%) afforded by the test compound as compared to the case where no compound was administered (i.e., the untreated animal where sorbitol levels normally rise from approximately […]. tissue to as high as […]. tissue in the 27-hour test period): […]

[2] = 5.0 mg./kg. orally at 4, 8 and 24 h after streptozotocin
[3] = 10 mg./kg. orally at 4, 8 and 24 h after streptozotocin
[4] = 2.5 mg./kg. orally at 4, 8 and 24 h after streptozotocin
[5] = 1.5 mg./kg. orally at 4, 8 and 24 h after streptozotocin

| Structure (SMILES) | inhibition at 100 µM (aldose reductase) | inhibition at 10 µM (aldose reductase) | inhibition at 1 µM (aldose reductase) | inhibition at 0.1 µM (aldose reductase) | Percent inhibition of sorbitol accumulation in the sciatic nerve [1, 2] | Percent inhibition of sorbitol accumulation in the sciatic nerve [1, 3] | Percent inhibition of sorbitol accumulation in the sciatic nerve [1, 4] | Percent inhibition of sorbitol accumulation in the sciatic nerve ([1]; 0.75 mg./kg. orally at 4, 8 and 24 h after streptozotocin) | Percent inhibition of sorbitol accumulation in the sciatic nerve [1, 5] |
| --- | --- | --- | --- | --- | --- | --- | --- | --- | --- |
| O=C1NC(=O)C2(CCSc3ccc(Cl)cc32)N1 (stereo not shown) [Ex. IX, 6'-chloro-spiro-[imidazolidine-4,4'-thiochroman]-2,5-dione] | 79% | 87% | 71% | 30% |  |  | 58% |  |  |
| COc1ccc2c(c1)CCC21NC(=O)NC1=O (stereo not shown) [Ex. VI, 5'-methoxy-spiro-[imidazolidine-4,1'-indan]-2,5-dione] | 82% | 60% | 13% | -10% |  |  |  |  |  |
| O=C1NC(=O)C2(CCSc3ccccc32)N1 (stereo not shown) [Ex. VII, spiro-[imidazolidine-4,4'-thiochroman]-2,5-dione] | 92% | 64% | 10% | -5% | 39% | 65% |  |  |  |
| O=C1NC(=O)C2(CCSc3ccc(Br)cc32)N1 (stereo not shown) [Ex. X, 6-bromo-spiro-[imidazolidine-4,4'-thiochroman]-2,5-dione] | 32% |  |  |  |  |  |  |  |  |
| O=C1NC(=O)C2(CCSc3cc(Cl)ccc32)N1 (stereo not shown) [Ex. XIV, 7'-chloro-spiro-[imidazolidine-4,4'-thiochroman]-2,5-dione] | 70% |  |  |  |  |  |  |  | 26% |
| COc1ccc2c(c1)C1(CCC2)NC(=O)NC1=O (stereo not shown) [Ex. XVI, 3',4'-dihydro-7'-methoxy-spiro[imidazolidine-4,1'(2'H)naphthalene]-2,5-dione] | 54% |  | 23% |  | 25% | 44% |  |  |  |
| COc1cc2c(cc1OC)C1(CCC2)NC(=O)NC1=O (stereo not shown) [Ex. XVII, 3',4'-dihydro-6',7'-dimethoxy-spiro[imidazolidine-4,1'-(2H)naphthalene]-2,5-dione] | 82% | 26% | 8% | 16% |  |  |  |  |  |
| COc1ccc2c(c1)CCCC21NC(=O)NC1=O (stereo not shown) [Ex. XVIII, 3',4'-dihydro-6'-methoxy-spiro[imidazolidine-4,1'(2'H)naphthalene]-2,5-dione] | 72% | 38% | 15% | 7% |  |  |  |  |  |
| COc1cccc2c1CCCC21NC(=O)NC1=O (stereo not shown) [Ex. XXVI, 3',4'-dihydro-5'-methoxy-spiro[imidazolidine-4,1'(2'H)-naphthalene]-2,5-dione] | 72% | 49% | 5% | 0% |  |  |  |  |  |
| O=C1NC(=O)C2(CC[S+]([O-])c3ccc(F)cc32)N1 (stereo not shown) [Ex. XXX, 6'-fluoro-spiro-[imidazolidine-4,4'-thiochroman]-2,5-dione-1'-oxide] | 87% | 80% | 64% | 16% |  |  |  |  | 35% |
| O=C1NC(=O)C2(CCS(=O)(=O)c3ccc(F)cc32)N1 (stereo not shown) [Ex. XXXI, 6'-fluoro-spiro-[imidazolidine-4,4'-thiochroman]-2,5-dione-1',1'-dioxide] | 85% | 74% | 74% | 28% | 68% |  | 47% |  |  |
| O=C1NC(=O)C2(CCS(=O)(=O)c3ccccc32)N1 (stereo not shown) [Ex. XXXII, spiro-[imidazolidine-4,4'-thiochroman]-2,5-dione-1',1'-dioxide] | 94% | 69% | 31% | 2% |  |  |  |  |  |
| Cc1cc(C)c2c(c1)C1(CCO2)NC(=O)NC1=O (stereo not shown) [Ex. XXXIV, 6,8-dimethyl-spiro-[chroman-4,4'-imidazolidine]-2',5'-dione] | 71% | 84% | 54% | 17% |  |  |  |  |  |

The next lines start with results.

| inhibition at 100 µM (aldose reductase) | inhibition at 10 µM (aldose reductase) | inhibition at 1 µM (aldose reductase) | inhibition at 0.1 µM (aldose reductase) | Structure (SMILES) | Percent inhibition of sorbitol accumulation in the sciatic nerve [1, 2] | Percent inhibition of sorbitol accumulation in the sciatic nerve [1, 3] | Percent inhibition of sorbitol accumulation in the sciatic nerve [1, 4] | Percent inhibition of sorbitol accumulation in the sciatic nerve ([1]; 0.75 mg./kg. orally at 4, 8 and 24 h after streptozotocin) | Percent inhibition of sorbitol accumulation in the sciatic nerve [1, 5] |
| --- | --- | --- | --- | --- | --- | --- | --- | --- | --- |
| 97% | 61% | 17% | 1% | COc1ccc2c(c1)C1(CC2)NC(=O)NC1=O (stereo not shown) [Ex. II, 6'-methoxy-spiro-[imidazolidine-4,1'-indan]-2,5-dione] | 6% | 54% |  |  |  |
| 74% | 12% | 22% | -1% | O=C1NC(=O)C2(CCc3ccc(F)cc32)N1 (stereo not shown) [Ex. III, 6'-fluoro-spiro-[imidazolidine-4,1'-indan]-2,5-dione] | 45% |  |  |  |  |
| 90% | 81% | 35% | 9% | COc1cc2c(cc1OC)C1(CC2)NC(=O)NC1=O (stereo not shown) [Ex. IV, 5',6'-dimethoxy-spiro-[imidazolidine-4,1'-indan]-2,5-dione] | 33% | 49% |  |  |  |
| 92% | 67% | 25% | 3% | O=C1NC(=O)C2(CCc3cc4c(cc32)OCO4)N1 (stereo not shown) [Ex. V, 5',6'-methylenedioxy-spiro-[imidazolidine-4,1'-indan]-2,5-dione] | 9% |  |  |  |  |
| 76% | 60% | 18% | 7% | COc1ccc2c(c1)C1(CCS2)NC(=O)NC1=O (stereo not shown) [Ex. VIII, 6'-methoxy-spiro-[imidazolidine-4,4'-thiochroman]-2,5-dione] | 26% |  |  |  |  |
| 81% | 77% | 66% | 38% | O=C1NC(=O)C2(CCSc3ccc(F)cc32)N1 (stereo not shown) [Ex. XII, 6'-fluoro-spiro-[imidazolidine-4,4'-thiochroman]-2,5-dione] |  |  | 74% | 13% | 45% |
| 60% |  |  |  | O=C1NC(=O)C2(CCSc3c(Cl)cccc32)N1 (stereo not shown) [Ex. XIII, 8'-chloro-spiro-[imidazolidine-4,4'-thiochroman]-2,5-dione] |  |  |  |  | 5% |
| 93% | 31% | 11% | -30% | O=C1NC(=O)C2(CCc3ccc(O)cc32)N1 (stereo not shown) [Ex. XIX, 6'-hydroxy-spiro-[imidazolidine-4,1'indan]-2,5-dione] |  | 15% |  |  |  |
| 83% | 54% | 9% | -2% | O=C1NC(=O)C2(CCCc3ncccc32)N1 (stereo not shown) [Ex. XV, 7',8'-dihydro-spiro[imidazolidine-4,5'(6H)-quinoline]-2,5-dione] | 5% | 52% |  |  |  |
| 73% | 64% | -9% | -16% | O=C1NC(=O)C2(CCOc3ccccc32)N1 (stereo not shown) [Ex. XX, spiro[chroman-4,4'-imidazolidine]-2',5'-dione] | 58% | 77% | 34% |  |  |
| 100% | 92% | 35% | 7% | COc1ccc2c(c1)C1(CCO2)NC(=O)NC1=O (stereo not shown) [Ex. XXI, 6-methoxy-spiro[chroman-4,4'-imidazolidine]-2',5'-dione] |  |  | 24% |  |  |
| 87% | 85% | 52% | 6% | O=C1NC(=O)C2(CCOc3c(Cl)cccc32)N1 (stereo not shown) [Ex. XXVII, 8-chloro-spiro-[chroman-4,4'-imidazolidine]-2',5'-dione] |  |  |  |  | 30% |
| 74% |  |  |  | O=C1NC(=O)C2(CCOc3ccc(Br)cc32)N1 (stereo not shown) [Ex. XXVIII, 6-bromo-spiro-[chroman-4,4'-imidazolidine]-2',5'-dione] |  |  |  |  |  |
